# System: Mgat3 transcription
# Experiment: qPCR of Mgat3 transcription in PBMC's from AD patients cultured with Aβ and test agent
# Assay type: cell-based, human
# Set-up: key to Relative Activity: relative ratio of Mgat3 transcription in AD/Mgat3 transcription in control cells: Dash (−) indicates minimal effect; (+) indicates a ratio of 1.0-1.5; (++) indicates a ratio of 1.5-2.0; (+++ to ++++) indicates a ratio of 2.0 and above; (+++ to ++++) indicates a ratio of 2.0 and above
# Conditions: Homo sapiens; curcumins 0.1 uM, PBMC's from AD patients cultured overnight with Aβ, 2 hours incubation, qPCR; read-out: Relative Activity: relative ratio of Mgat3 transcription in AD/Mgat3 transcription in control cells
# Protocol: RNA Isolation and qPCR. RNA was isolated as above from PBMC's (10 million) of each subject, which were cultured overnight with or without Aβ (2 μg/ml); and cDNA was synthesized using the iSCRIPT cDNA Synthesis Kit. The expression levels of the genes of interest were tested by qPCR on a real-time PCR detector and normalized to the levels of the housekeeping gene 36B4 with the following primers: […]
# SYBR Green reactions were carried out with the IQ SYBR Green mix. Reactions were run on a Continuous Fluorescence detector and analyzed. The relative quantities of the gene tested per sample were calculated against 36B4 using the ΔΔC(T) formula as previously described. The results are expressed as log [MGAT (or TLR) RNA (with Aβ)/MGAT (or TLR) RNA (without Aβ)] for each specimen. For evaluation of curcumins or curcumin analogs the above assay was used. Curcumins (0.1 uM) were added to PBMC's from AD patients cultured overnight with ±Aβ as above. After 2 hours of incubation with the curcumin or analog, RNA was isolated and cDNA was synthesized as above. The expression levels of Mgat3 or TLR transcription was quantified and normalized to the levels of housekeeping genes and compared to cells treated with curcumin or analogs with or without Aβ vs. untreated cells. The amount of Mgat3 (or TLR) RNA with Aβ and test agent/Mgat3 (or TLR) RNA withal alone)] for each cell preparation in the presence of test agent was determined. The ratio was used to determine the potency of the agent tested. Potent compounds had elevated ratios (>1.5) and were used to rank the relative activity of each test agent (Table 2).
# Curcumins. […] Crude natural product derived materials (i.e., curcuminoids) enhance phagocytosis of Aβ by macrophages from AD patients in approximately 50% of the cases examined. […] The material was purified to near homogeneity and identified by LCMS as bisdesmethoxycurcumin on the basis of its molecular ion and fragmentation pattern. To verify the biological activity of this minor constituent, bisdesmethoxycurcumin was chemically synthesized and tested in the phagocytosis and transcription assays described above (see Example 4). Compared with curcumin, both the bisdesmethoxycurcumin material isolated by chromatography and the chemically synthesized bisdesmethoxycurcumin material optimally stimulated phagocytosis at 0.1 μM. To determine whether functional improvement would be accompanied by biochemical changes, we tested transcriptional up-regulation of MGA T3 and TLR's in PBMC's from AD patients and controls in the presence of Aβ with bisdesmethoxycurcumin (0.1 μM) in comparison to Aβ alone. […] Thus, curcumins (0.1 uM) were added to PBMC's from AD patients cultured overnight with Aβ as above. After 2 hours of incubation, RNA was isolated and cDNA was synthesized. The expression levels of Mgat3 or TLR transcription was quantified and normalized to the levels of housekeeping genes and compared to cells treated with curcumin or analogs without Aβ. The amount of Mgat3 (or TLR) RNA with test agent and Aβ)/Mgat3 (or TLR) RNA (with Aβ alone)] for each cell preparation in the presence of test agent was determined. The ratio was used to determine the potency of the agent tested. Potent compounds had elevated ratios (>1.5) and were used to rank the relative activity (Table 2).
# Mgat3 and TLR transcription in cells from AD and control patients. We tested by qPCR Mgat3 and/0or TLR transcription in cells from AD patients and compared the results to those obtained from age-matched controls (Table 2). As discussed above, activation or up-regulation of macrophage Mgat3 or TLR's results in many functional outcomes, including the enhancement of […] and removal of Aβ, increased apoptosis, secretion of inflammatory cytokines, and other anti-AD antimicrobial activities. […] Thus, the ratio of Mgat3 or TLR transcription upon Aβ stimulation of AD versus control PBMCs provides an indicator and sensitive method to test the in vitro efficacy of drug candidates. […]
row,Molecule,fold induction at 0.1 µM
1,"O=C(C=Cc1cccc(O)c1)C=C(O)C=Cc1cccc(O)c1 [Compound 5e, 5-Hydroxy-1,7-bis-(3-hydroxy-phenyl)-hepta-1,4,6-trien-3-one]",1 to 1.5
2,"CN(C)c1ccc(C=CC(=O)C=C(O)C=Cc2ccc(N(C)C)cc2)cc1 [Compound 5f, 1,7-Bis-(4-dimethylamino-phenyl)-5-hydroxy-hepta-1,4,6-trien-3-one]",≥ 2
3,"COc1ccc(C=CC(=O)C=C(O)C=Cc2ccc(OC)c(O)c2)cc1O [Compound 5g, 5-Hydroxy-1,7-bis-(3-hydroxy-4-methoxy-phenyl)-hepta-1,4,6-trien-3-one]",1 to 1.5
4,"COc1cc(C=CC(=O)C=C(O)C=Cc2ccc(O)c(OC)c2)ccc1O [Compound 5h, 5-Hydroxy-1,7-bis-(4-hydroxy-3-methoxy-phenyl)-hepta-1,4,6-trien-3-one]",1 to 1.5
5,"COc1cc(O)ccc1C=CC(=O)C=C(O)C=Cc1ccc(O)cc1OC [Compound 5i, 5-Hydroxy-1,7-bis-(4-hydroxy-2-methoxy-phenyl)-hepta-1,4,6-trien-3-one]",1.5 to 2
6,"COc1ccccc1C=CC(=O)C=C(O)C=Cc1ccccc1OC [Compound 5l, 5-Hydroxy-1,7-bis-(2-methoxy-phenyl)-hepta-1,4,6-trien-3-one]",≥ 2
7,"O=C(/C=C(O)/C=C/c1ccccc1)/C=C/c1ccccc1 [Compound 6, (1E,4Z,6E)-5-hydroxy-1,7-diphenylhepta-1,4,6-trien-3-one]",1 to 1.5
8,"CC(C)(C)c1ccc(/C=C/C(=O)/C=C(O)/C=C/c2ccc(C(C)(C)C)cc2)cc1 [Compound 10, (1E,4Z,6E)-1,7-bis(4-tert-butylphenyl)-5-hydroxyhepta-1,4,6-trien-3-one]",1 to 1.5

# Same assay, conditions: curcumins 0.1 uM, PBMC's from AD patients cultured overnight with Aβ, 2 hours incubation, qPCR
row,Molecule,Relative Activity: relative ratio of Mgat3 transcription in AD/Mgat3 transcription in control cells
1,"COc1ccc(C=CC(=O)C=C(O)C=Cc2ccc(OC)cc2)cc1 [Compound 5b, 5-Hydroxy-1,7-bis-(4-methoxy-phenyl)-hepta-1,4,6-trien-3-one]",−
2,"CC(=O)Oc1ccc(C=CC(=O)C=C(O)C=Cc2ccc(OC(C)=O)cc2)cc1 [Compound 5c, Aceticacid 4-[7-(4-acetoxy-phenyl)-5-hydroxy-3-oxo-hepta-1,4,6-trienyl]-phenyl ester]",−
3,"CC(C)(C)C(=O)Oc1ccc(C=CC(=O)CC(=O)C=Cc2ccc(OC(=O)C(C)(C)C)cc2)cc1 [Compound 5d, 2,2-Dimethyl-propionic acid 4-{7-[4-(2,2-dimethyl-propionyloxy)-phenyl]-3,5-dioxo-hepta-1,6-dienyl}-phenyl ester]",−
4,"COc1ccc(C=CC(=O)C=C(O)C=Cc2ccc(OC)cc2O)c(O)c1 [Compound 5j, 5-Hydroxy-1,7-bis-(2-hydroxy-4-methoxy-phenyl)-hepta-1,4,6-trien-3-one]",−
5,"O=C(C=Cc1ccc(O)c(Cl)c1)C=C(O)C=Cc1ccc(O)c(Cl)c1 [Compound 5k, 1,7-Bis-(3-chloro-4-hydroxy-phenyl)-5-Hydroxy-hepta-1,4,6-trien-3-one]",−
6,Cc1ccc(/C=C/C(=O)/C=C(O)/C=C/c2ccc(C)cc2)cc1 [Compound 7],++ ((++) indicates a ratio of 1.5-2.0)
7,O=C(/C=C(O)/C=C/c1cccc(F)c1)/C=C/c1cccc(F)c1 [Compound 8],+ ((+) indicates a ratio of 1.0-1.5)
8,CSc1ccc(/C=C/C(=O)/C=C(O)/C=C/c2ccc(SC)cc2)cc1 [Compound 9],++++ ((+++ to ++++) indicates a ratio of 2.0 and above)

# System: macrophages of AD patients
# Experiment: Phagocytosis of FITC-amyloid-beta (1-42) by macrophages of AD patients
# Assay type: cell-based, human
# Conditions: in vitro treatment during Aβ phagocytosis, fluorescence/confocal microscopy
# From the text: (§1) Peripheral blood mononuclear cells (PBMC's) and macrophages. AD patients were recruited at the time of enrollment in a double-blind study of curcumin Complex 3 in progress at UCLA. The diagnostic criteria for AD satisfied the National Institute of Neurological and Communicative Disorders and the AD and Related Disorders Association criteria for probable Alzheimer's disease. Normal age-matched control subjects were recruited. PBMC's were isolated by the Ficoll Hypaque gradient technique from venous blood. To prepare macrophage slide cultures, 50,000 PBMC's were cultured in each well of an 8-chamber polystyrene vessel glass slide in Iscove's medium with 10% autologous serum until differentiated into adherent macrophages (7-14 days).
# Phagocytosis assay and confocal microscopy. Macrophages were exposed to FITC-amyloid-beta (1-42) (2 μg/ml) overnight, fixed with 4% paraformaldehyde, permeabilized with 0.1% Triton X-100, blocked with 1% BSA in PBS and stained with Rab 5 or EEA1 antibodies by indirect immunofluorescence; lysosomes were stained intravitally by the Lyso-Tracker probe; macrophages were stained using anti-CD68; neurons were stained using anti-NeuN. The preparations were examined using fluorescence and confocal microscopy.
# Ability of monocytes to clear Aβ in the brain. Co-culture of freshly isolated monocytes with sections of AD frontal lobe to test the ability of monocytes to clear Aβ in the brain was done. One third of control monocytes became saturated with Aβ in 2 days and 100% in 4 days. […] Apoptosis of macrophages treated with Aβ was done with the SR-VAD-FMK polycaspase assay. Differentiated macrophages were treated with curcuminoids or analogs in the medium overnight and were then exposed to FITC-Aβ (1-42) to 2.5 μg/ml, incubated for 24 or 48 h and examined by fluorescence or confocal microscopy.
# Curcuminoids reverse defective phagocytosis of amyloid-beta by macrophages of individual AD patients. […] Macrophages were visualized using anti-CD68 or fluorescent phalloidin with a fluorescence microscope.
row,Molecule,effect on Aβ phagocytosis/uptake by AD macrophages
1,IGF-1: the hormone insulin-like growth factor (IGF-I),improves Aβ phagocytosis

# System: control macrophages
# Experiment: Phagocytosis / uptake of FITC-Aβ by control macrophages
# Assay type: cell-based, human
# Conditions: Example 5; control or AD macrophages not specified
# From the text: as §1
# Phagocytosis assay and confocal microscopy. […] The preparations were examined using fluorescence and confocal microscopy. […]
# Curcuminoids reverse defective phagocytosis of amyloid-beta by macrophages of individual AD patients. […] Macrophages were visualized using anti-CD68 or fluorescent phalloidin with a fluorescence microscope. […]
row,Molecule,block of uptake of Aβ
1,Fucoidan,did not block uptake of Aβ

# System: not given
# Experiment: not given
# Conditions: not given
row,melting point,Molecule
1,182.8 °C,"COc1ccc(C=CC(=O)C=C(O)C=Cc2ccc(OC)c(O)c2)cc1O [Compound 5g, 5-Hydroxy-1,7-bis-(3-hydroxy-4-methoxy-phenyl)-hepta-1,4,6-trien-3-one]"

# Source: patent US20090263492A1, “Diagnostic Methods and Genetic Markers for Alzheimer Disease” (priority 2006, published 2009)
